Earlier results on one molecule are cited in patent US20180280392A1, “PHARMACEUTICAL PREPARATION COMPRISING CYCLIN INHIBITOR AND PREPARATION METHOD THEREOF” (Jiangsu Hansoh Pharmaceutical Group Co., Ltd., priority 2014, published 2018).

Each structure is given as a SMILES string. Where two headings read alike, the source gives them in different places.

The subject of the data set is phosphorylation of retinoblastoma tumor suppressor (RB) in MDA-MB-435 breast cancer cells.

Regarding `CC(=O)c1c(C)c2cnc(Nc3ccc(N4CCNCC4)cn3)nc2n(C2CCCC2)c1=O` [compound of formula I, 6-acetyl-8-cyclopentyl-5-methyl-2-(5-piperazin-1-yl-pyridin-2-yl-amino)-8H-pyrido[2,3-d]pyrimidin-7-one], the IC50 (Ser780 site, read-out: IC50, reduction of phosphorylation of RB on Ser780) was 66 nM and the IC50 (Ser795 site, read-out: IC50, reduction of phosphorylation of RB on Ser795) is 63 nM.
